Reference: paper PMC9578143, “Small-Molecule Ebselen Binds to YTHDF Proteins Interfering with the Recognition of N^6-Methyladenosine-Modified RNAs” (ACS Pharmacology & Translational Science, 2022)
Entries after “also recorded” stand apart in the source; their conditions may differ. Where two headings read alike, the source gives them in different places.

How the values were obtained:
[1] = tested on: m6A levels in poly(A) purified mRNA of PC-3 cells; assay: m6A level by 2D thin-layer chromatography; assay type: cell-based, human; settings: 24 h time frame
Method: 100 ng of the poly(A) purified RNA was used as the input. Processed samples were analyzed on glass-backed PEI-cellulose plates (MerckMillipore) as described previously. Plates were exposed to a storage phosphor screen below saturation and processed on a Typhoon NIR laser scanner (Cytiva). Quantification of individual nucleotides was done with ImageJ. The relative amount of m6A was calculated as a percent of the total A (sum of both A and m6A spot intensity).

[2] = tested on: YTHDF1-3, ALKBH5 and METTL3 in PC-3 cells; assay: Western blot of the epitranscriptome apparatus; assay type: cell-based, human; settings: PC-3 cells, 24, 48 and 72 h, 10, 25, 50 μM; listed as ebselen
Method: Supplementary Figure 4. Protein level of the epitranscriptome apparatus and m6A level in PC-3 cells. (A) Representative western blot of YTHDF1-3, ALKBH5 and METTL3 in PC-3 cells after 24, 48 and 72 hours of ebselen treatment at three doses, 10, 25, 50 µM. (B) Quantification of the relative changes of YTHDF1-3, ALKBH5 and METTL3 in PC-3 cells after 24, 48 and 72 hours of ebselen treatment at three doses, 10, 25, 50 µM. […] Three biological replicates were performed. (C) Quantitative real-time PCR of YTHDF1-3, ALKBH5 and METTL3 in PC-3 cells after 24 hours of ebselen treatment at 10 µM.
Supplementary Figure 5. Caption: 2F o-Fc map (blue) is contoured at 1s for Ebselen and Cys412 side chain. The selenium anomalous map is contoured at 3.5σ and shown in orange.
(§1) (1 picture or pasted object on this page, not shown here)

[3] = tested on: m6A-mRNAs (CREBBP, YTHDF2, GATA2, HNRNPF) in PC-3 cells; assay: m6A mRNA stability measurement with actinomycin D; assay type: cell-based, human; settings: 4 h co-treatment with actinomycin D, versus DMSO, listed as ebselen
Method: PC-3 cells were plated on a six-well dish. At 70–80% confluency, cells were treated with […] actinomycin D or vehicle (DMSO) to inhibit transcription in combination with 50 μM ebselen for 4 h before collection. As a control, cells were treated with actinomycin D or vehicle (DMSO) for 4 h. Total RNA was isolated from cells using TRIzol according to the manufacturer’s instructions. For each condition, the same amount of total RNA was reverse-transcribed to cDNA (2 μg) using the SuperScript IV First-Strand kit. Oligo-dT primers were used during the cDNA synthesis step. This allowed us to selectively convert to cDNA the amount of intact RNA still present in cells upon actinomycin D treatment while avoiding the conversion of fragmented RNA to cDNA. qRT-PCR experiments were performed in duplicates and normalized on a stable mRNA, GAPDH.

[4] = target: T1, YTH domain of YTHDF1 / biotinylated RNA probe 5′-Bi-CCGAm6ACUGUC-3′ (Homo sapiens, UniProt Q9BYJ9); assay: AlphaScreen competitive assay, saturation binding; settings: 50 nM RNA, 50 nM protein, compound 0–100 μM
T1 construct: The human YTHDF1 YTH domain (amino acids 365–554, PDB: 4RCJ); host or cells: E. coli BL21(DE3)
T1 sequence (Q9BYJ9 365-554): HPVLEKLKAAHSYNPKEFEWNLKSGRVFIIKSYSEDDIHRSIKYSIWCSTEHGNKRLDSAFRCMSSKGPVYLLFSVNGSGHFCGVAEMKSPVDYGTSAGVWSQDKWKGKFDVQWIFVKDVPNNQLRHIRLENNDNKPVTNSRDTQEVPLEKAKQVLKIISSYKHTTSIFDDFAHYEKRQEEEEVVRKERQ
Method: The Amplified Luminescent Proximity Homogeneous Assay (ALPHA Assay) was performed in white 384-well Optiplates (PerkinElmer) in a final volume of 20 μL, and it was first optimized by titrating both the protein and the biotinylated RNA probe (5′-Bi-CCGAm6ACUGUC-3′, Dharmacon) to find the appropriate right protein/RNA ratio before the saturation of the detection signal. […] Anti-His acceptor beads (PerkinElmer) (20 μg/mL final concentration) and streptavidin donor beads (20 μg/mL final concentration) were added and the reaction was incubated in the dark at room temperature for 1 h to reach equilibrium. Light signals were detected with an Enspire Multimode Plate reader (PerkinElmer). […] The IC50 of ebselen was determined from the nonlinear regression fits of the data.

[5] = target: T2, recombinant YTH domain of the YTHDF1 protein (Homo sapiens, UniProt Q9BYJ9); assay: ESI-MS of the protein after incubation with the compound; assay type: binding
T2 construct: The human YTHDF1 YTH domain (amino acids 365–554, PDB: 4RCJ); host or cells: E. coli BL21(DE3)
T2 sequence (Q9BYJ9 365-554): T1 sequence (Q9BYJ9 365-554)

[6] = target: T3, human YTHDF2 YTH domain (Homo sapiens, UniProt Q9Y5A9); assay: Tryptophan fluorescence quenching assay; assay type: binding
T3 construct: the human YTHDF2 YTH domain (amino acids 383–553, PDB: 4WQN); made in house; host or cells: E. coli BL21(DE3)
T3 sequence (Q9Y5A9 383-553): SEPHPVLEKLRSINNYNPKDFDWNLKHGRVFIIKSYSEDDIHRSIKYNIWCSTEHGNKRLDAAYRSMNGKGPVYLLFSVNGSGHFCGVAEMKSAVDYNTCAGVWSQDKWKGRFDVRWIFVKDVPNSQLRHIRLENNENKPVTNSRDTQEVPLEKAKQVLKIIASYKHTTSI
Method: (§2) Fluorescence was measured using a Tecan Infinite 200 Microplate reader (Tecan Group Ltd.), setting the […] wavelength at 288 nm and collecting the emission data at 330 nm.

[7] = target: T4, YTH domain of the YTHDC1 protein (Homo sapiens, UniProt Q96MU7); assay: Tryptophan fluorescence quenching assay; assay type: binding
T4 construct: made in house
Method: as §2

[8] = target: T5, YTHDF1 YTH domain (Homo sapiens, UniProt Q9BYJ9); assay: Tryptophan fluorescence quenching assay; assay type: binding
T5 construct: The human YTHDF1 YTH domain (amino acids 365–554, PDB: 4RCJ); host or cells: E. coli BL21(DE3)
T5 sequence (Q9BYJ9 365-554): T1 sequence (Q9BYJ9 365-554)
Method: as §2

[9] = target: T6, YTHDF1 domain (Homo sapiens, UniProt Q9BYJ9); assay: Dynamic mass redistribution (DMR), label-free; settings: immobilized YTHDF1 domain, binding at equilibrium
T6 construct: The human YTHDF1 YTH domain (amino acids 365–554, PDB: 4RCJ); host or cells: E. coli BL21(DE3)
T6 sequence (Q9BYJ9 365-554): T1 sequence (Q9BYJ9 365-554)
Method: The protein was immobilized in a final volume of 15 μL/well of a 50 μg/mL solution in 20 mM sodium acetate buffer, pH 6, onto the surface of label-free microplates by amine-coupling chemistry. Different concentrations of ebselen (300 nM to 50 μM) were added to the plate and the mass of the molecular complex was measured every minute for 1 h. […]
probe with the YTH domain of YTHDF1 calculated with the DMR. rYTH was immobilized to the wells with amino-coupled chemistry and different concentrations of RNA were added to the plate.
Measurements were performed before adding the RNA, in order to define a baseline, and after the addition. Final response (pm) was obtained by subtracting to the last measurement the baseline.
Signal for each well was obtained by subtracting the signal of a reference area with the protein coated to an uncoated one. Data were fitted according to a four-parameter nonlinear regression […]
as §1

## O=c1c2ccccc2[se]n1-c1ccccc1 [Compound 1, 2-phenyl-1,2-benzisoselenazol-3(2H)-one]
[1]
  Overall m6A methylation level (in words): no significant changes
[2]
  Expression level of the proteins of the epitranscriptome apparatus (in words): No changes were observed
[3]
  Stability of methylated mRNAs (in words): increase in mRNA stability; also recorded: increased the stability of methylated genes
[4]
  IC50: 3.565 ± 0.009 µM
[5]; 5 μM protein, 50 μM compound, 60 min, no DTT
  Mass shift of the YTH domain (ESI-MS): 274.96 Da
[5]; in the presence of 1 mM DTT
  Mass of the YTH domain after incubation (ESI-MS, in words): matched that of the unmodified YTH domain
[6]
  EC50: 1.66 µM
[7]; listed as Ebselen
  Interaction with the YTH domain (tryptophan fluorescence, in words): cannot reduce tryptophan fluorescence
[7]; listed as ebselen
  Interaction with the YTH domain (tryptophan fluorescence, in words): did not interact
[8]; 5 μM protein, read-out: EC50 (tryptophan quenching)
  EC50: 1.63 µM
[8]; Table 1, read-out: EC50 (μM) (Tryptophan quenching)
  EC50: 1.5 ± 0.24 µM
[9]
  EC50: 3.22 µM
